Measured values taken from ChEMBL document CHEMBL5576120, “Discovery and In Vivo Efficacy of AZ-PRMT5i-1, a Novel PRMT5 Inhibitor with High MTA Cooperativity” (J Med Chem, 2024).
Values after ≈ are worked out from the molar mass of the structure shown.

Key:
[1] = Intrinsic clearance in rat hepatocytes assessed per million cells; format: ADME, cell-based, Hepatocyte; settings: read-out: CLH
[2] = target: Protein arginine N-methyltransferase 5 (Homo sapiens, UniProt O14744)
Description: Inhibition of PRMT5 in human HCT-116 cells with MTAP KO assessed as decrease in SMDA level incubated for 48 hrs by immunofluorescence analysis

physchem [3] = settings: buffer, pH 7.4
Description: Lipophilicity, logD of compound at pH 7.4

PRMT5/MEP50 complex [4] = target: T1, PRMT5/MEP50 complex (Homo sapiens, UniProt O14744); assay: biochemical
Description: Inhibition of PRMT5 (1 to 637 residues)/MEP504 (2 to 342 residues)(unknown origin) expressed in baculovirus infected Sf21 insect cells using histone H4/SAM as substrate incubated for 5 hrs in presence of MTA by MTase Glo assay

physchem [5] = settings: phosphate buffer, pH 7.4
in vitro = settings: human, Caco-2
Description: Apparent permeability across apical to basal side of human Caco-2 cells at 10 uM

[6] = Volume of distribution at steady state in Wistar Han rat at 1 mg/kg, po or 0.5 mg/kg, iv; format: ADME, organism-based; settings: in vivo
[7] = Half life in Wistar Han rat at 1 mg/kg, po or 0.5 mg/kg, iv; format: ADME, organism-based; settings: in vivo
[8] = Intrinsic clearance in human hepatocytes assessed per million cells; format: ADME, cell-based, Hepatocyte; settings: read-out: CLH
[9] = Volume of distribution at steady state in CD-1 mouse at 1 mg/kg, po or 0.5 mg/kg, iv; format: ADME, organism-based; settings: in vivo
[10] = Oral bioavailability in CD-1 mouse at 1 mg/kg; format: ADME, organism-based; settings: in vivo
[11] = Half life in CD-1 mouse at 1 mg/kg, po or 0.5 mg/kg, iv; format: ADME, organism-based; settings: in vivo
HCT-116 = assay: Cooperativity fold, ratio of IC50 for PRMT5 in human HCT-116 cells expressing wild-type MTAP assessed as decrease in SMDA level to IC50 for PRMT5 in human HCT-116 cells with MTAP KO assessed as decrease in SMDA level; format: cell-based
PRMT5/MEP50 complex [12] = target: T1, PRMT5/MEP50 complex; assay: biochemical; remark: listed apart in the source
Description: Inhibition of PRMT5 (1 to 637 residues)/MEP504 (2 to 342 residues)(unknown origin) expressed in baculovirus infected Sf21 insect cells using histone H4/SAM as substrate incubated for 5 hrs by MTase Glo assay

[13] = Unbound protein binding in rat plasma by equilibrium dialysis; format: ADME, cell-free
[14] = Oral bioavailability at steady state in Wistar Han rat at 1 mg/kg; format: ADME, organism-based; settings: in vivo
Translocator protein = Translocator protein (Homo sapiens, UniProt P30536); assay: Inhibition of human TSPO
Lu-99 cell line [15] = assay: Antiproliferative activity against human Lu-99 cells incubated for 7 days; format: functional, cell-based; settings: Lu-99, 168 h
Lu-99 cell line [16] = assay: Antitumor activity against human Lu-99 cells xenografted in nude mouse at 100 mg/kg, po bid measured after 21 days relative to control; format: functional; settings: Lu-99, 504 h, time 21 day, read-out: TGI
Lu-99 cell line [17] = assay: Antitumor activity against human Lu-99 cells xenografted in nude mouse assessed as tumor growth inhibition administered orally twice a day measured for 21 days; format: functional, cell-based; settings: dose 1-10 mg/kg, route po, time 21.0 day
Lu-99 cell line [18] = assay: Antitumor activity against human Lu-99 cells xenografted in nude mouse assessed as inhibition of SDMA level administered orally twice a day measured for 21 days; format: functional, cell-based; settings: dose 1-10 mg/kg, route po, time 21.0 day
Lu-99 cell line [19] = assay: Antitumor activity against human Lu-99 cells xenografted in nude mouse assessed as inhibition of SDMA level at 100 mg/kg, po bid measured after 21 days relative to control; format: functional; settings: Lu-99, 504 h, time 21 day
[20] = Toxicity in nude mouse xenografted with human Lu-99 cells assessed as body weight loss upto 100 mg/kg, po bid measured for 21 days; format: organism-based; settings: in vivo, 504 h, time 21 day
[21] = Antitumor activity against human PDX GA2254 cells xenografted in Balb/c nude mouse assessed as tumor regression at 50 mg/kg, po bid measured for 21 days relative to control; format: functional; settings: time 21 day
[22] = Antitumor activity against human PDX GA2254 cells xenografted in Balb/c nude mouse at 10 mg/kg, po bid measured for 21 days relative to control; format: functional; settings: PDX GA2254, 504 h, time 21 day, read-out: TGI
[23] = Antitumor activity against human PDX GA2254 cells xenografted in Balb/c nude mouse assessed as inhibition of SDMA level at 50 mg/kg, po bid measured for 21 days relative to control; format: functional; settings: PDX GA2254, 504 h, time 21 day, read-out: TGI
[24] = Antitumor activity against human PDX GA2254 cells xenografted in Balb/c nude mouse assessed as inhibition of SDMA level at 10 mg/kg, po bid measured for 21 days relative to control; format: functional; settings: PDX GA2254, 504 h, time 21 day, read-out: TGI
[25] = Antitumor activity against human PDX GA2254 cells xenografted in Balb/c nude mouse assessed as inhibition of SDMA level at 1 mg/kg, po bid measured for 21 days relative to control; format: functional; settings: PDX GA2254, 504 h, time 21 day, read-out: TGI

T1 sequence (O14744 whole entry): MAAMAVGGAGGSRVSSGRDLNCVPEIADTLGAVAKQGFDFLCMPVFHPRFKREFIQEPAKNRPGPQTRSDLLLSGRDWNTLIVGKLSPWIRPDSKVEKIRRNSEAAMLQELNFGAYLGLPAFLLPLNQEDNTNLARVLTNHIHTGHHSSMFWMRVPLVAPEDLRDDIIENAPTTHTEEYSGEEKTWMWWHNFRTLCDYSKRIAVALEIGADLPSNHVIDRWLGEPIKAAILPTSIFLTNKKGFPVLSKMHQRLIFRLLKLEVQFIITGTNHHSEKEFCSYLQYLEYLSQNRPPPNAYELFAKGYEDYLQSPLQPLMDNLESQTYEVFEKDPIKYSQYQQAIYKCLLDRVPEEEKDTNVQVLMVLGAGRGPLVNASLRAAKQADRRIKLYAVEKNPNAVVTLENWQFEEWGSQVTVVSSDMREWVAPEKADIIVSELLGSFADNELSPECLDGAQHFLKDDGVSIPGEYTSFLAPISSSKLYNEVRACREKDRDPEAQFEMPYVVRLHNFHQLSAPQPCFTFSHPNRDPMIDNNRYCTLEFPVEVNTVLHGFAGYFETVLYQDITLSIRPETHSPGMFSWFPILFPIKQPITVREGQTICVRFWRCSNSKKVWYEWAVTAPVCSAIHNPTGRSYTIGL
T1 sequence (Q9BQA1 whole entry, further chain): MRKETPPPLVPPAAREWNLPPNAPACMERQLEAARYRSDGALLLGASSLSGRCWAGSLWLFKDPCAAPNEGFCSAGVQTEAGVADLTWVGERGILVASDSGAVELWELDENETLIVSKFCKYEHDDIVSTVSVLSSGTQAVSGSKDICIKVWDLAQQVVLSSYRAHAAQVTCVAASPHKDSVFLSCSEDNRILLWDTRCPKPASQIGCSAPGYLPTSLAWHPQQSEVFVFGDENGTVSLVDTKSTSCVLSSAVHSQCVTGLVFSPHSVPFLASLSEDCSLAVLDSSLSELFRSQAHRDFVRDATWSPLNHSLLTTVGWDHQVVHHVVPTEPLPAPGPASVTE
Chain of Protein arginine N-methyltransferase 5 (O14744 whole entry): as the sequence (O14744 whole entry) above
Chain of Translocator protein (P30536 whole entry): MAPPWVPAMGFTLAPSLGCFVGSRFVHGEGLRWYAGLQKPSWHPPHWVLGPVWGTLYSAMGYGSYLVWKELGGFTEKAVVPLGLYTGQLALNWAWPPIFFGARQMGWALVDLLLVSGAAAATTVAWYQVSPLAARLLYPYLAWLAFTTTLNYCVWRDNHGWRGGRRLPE

SMILES | hepatocyte CLint [1] | IC50 [2] | logD (physchem [3]) | Papp A→B at 10 µM (in vitro) | other results
O=C1c2cc(F)ccc2[C@]2(CCN(Cc3ccc(F)cc3)C2=O)N1Cc1cc2cnccc2[nH]1 | 3 µL/min/1e6 cells | > 30000 nM | 2.4 |  | IC50 (PRMT5/MEP50 complex [4]): 970 nM
O=C1c2cc(F)ccc2[C@@]2(CCN(Cc3ccc(F)cc3)C2=O)N1Cc1cc2cccnc2[nH]1 | 188 µL/min/1e6 cells |  | 3.4 |  | 
Nc1cc(C(F)F)c2[nH]c(CN3C(=O)c4cc(F)ccc4[C@]34CCN(Cc3ccc(F)cc3)C4=O)cc2n1 | 15 µL/min/1e6 cells |  | 2.9 | 56 ×10⁻⁶ cm/s | solubility at 24 h (physchem [5]): 86 µM (≈ 45 µg/mL)
O=C(NCc1ccc(F)cc1)C1c2ccc(F)cc2C(=O)N1Cc1cc2cccnc2[nH]1 (configuration not stated) | 123 µL/min/1e6 cells |  | 3.2 |  | 
Nc1ccc2[nH]c(CN3C(=O)c4cc(F)ccc4[C@]34CCN(Cc3ccc(F)cc3)C4=O)cc2n1 | 13 µL/min/1e6 cells |  | 2.2 | 2.7 ×10⁻⁶ cm/s | Vdss [6]: 7.8 L/kg; half-life [7]: 30 min; hepatocyte CLint [8]: < 1 µL/min/1e6 cells; Vdss [9]: 2.7 L/kg; bioavailability [10]: 3%; half-life [11]: 53.4 min; solubility at 24 h (physchem [5]): 106 µM (≈ 50.2 µg/mL)
Cn1c(CN2C(=O)c3cc(F)ccc3[C@]23CCN(Cc2ccc(F)cc2)C3=O)cc2nc(N)ccc21 | 21 µL/min/1e6 cells | 4800 nM | 2.2 |  | Ratio IC50 (HCT-116): > 5; solubility at 24 h (physchem [5]): 110 µM (≈ 53.6 µg/mL)
O=C1c2cc(F)ccc2[C@]2(CCN(Cc3ccc(F)cc3)C2=O)N1Cc1cc2ccncc2[nH]1 | 6 µL/min/1e6 cells | 6400 nM | 2.8 |  | Ratio IC50 (HCT-116): > 5; IC50 (PRMT5/MEP50 complex [4]): 370 nM
Nc1nc2cc(CN3C(=O)c4cc(F)ccc4[C@]34CCN(Cc3ccc(F)cc3)C4=O)[nH]c2cc1F | < 5 µL/min/1e6 cells |  | 2.8 | 48 ×10⁻⁶ cm/s | Vdss [6]: 2.4 L/kg; bioavailability [14]: 35%; half-life [7]: 108 min; hepatocyte CLint [8]: < 1 µL/min/1e6 cells; Ki (Translocator protein): 610 nM; Vdss [9]: 2.1 L/kg; bioavailability [10]: 101%; half-life [11]: 204 min; IC50 (Lu-99 cell line [15]): 124 nM; inhibition in vivo at 100 mg/kg (Lu-99 cell line [16]): 71%; inhibition (Lu-99 cell line [17]): Dose-Dependent Effect; inhibition (Lu-99 cell line [18]): Dose-Dependent Effect; inhibition in vivo at 100 mg/kg (Lu-99 cell line [19]): 95%; Activity [20]: Non-Toxic; Activity [21]: 50%; inhibition in vivo at 10 mg/kg [22]: 33%; inhibition in vivo at 50 mg/kg [23]: 97%; inhibition in vivo at 10 mg/kg [24]: 93%; inhibition in vivo at 1 mg/kg [25]: 51%; solubility at 24 h (physchem [5]): 8 µM (≈ 3.93 µg/mL)
COc1cc(N)nc2cc(CN3C(=O)c4cc(F)ccc4[C@]34CCN(Cc3ccc(F)cc3)C4=O)[nH]c12 | 7 µL/min/1e6 cells | 4 nM | 1.8 | 1.4 ×10⁻⁶ cm/s | Ratio IC50 (HCT-116): 7.2; solubility at 24 h (physchem [5]): 610 µM (≈ 307 µg/mL)
CNC(=N)Nc1ncc(CN2C(=O)c3cc(F)ccc3C2C(=O)NCc2ccc(F)cc2)s1 (configuration not stated) | 19 µL/min/1e6 cells |  | 2.7 | 14 ×10⁻⁶ cm/s | Vdss [6]: 2.6 L/kg; bioavailability [14]: 20%; half-life [7]: 42.6 min; solubility at 24 h (physchem [5]): 8 µM (≈ 3.76 µg/mL)
O=C(NCc1ccc(F)cc1)C1c2ccc(F)cc2C(=O)N1Cc1cc2ncccc2[nH]1 (configuration not stated) | 112 µL/min/1e6 cells |  | 3.4 |  | 
Nc1ccc2ncc(CN3C(=O)c4cc(F)ccc4[C@]34CCN(Cc3ccc(F)cc3)C4=O)cc2n1 | 22 µL/min/1e6 cells | 240 nM | 2.2 | 27 ×10⁻⁶ cm/s | Ratio IC50 (HCT-116): 18; solubility at 24 h (physchem [5]): 55 µM (≈ 26.7 µg/mL)
O=C1c2cc(F)ccc2[C@]2(CCN(Cc3ccc(F)cc3)C2=O)N1Cc1cc2ncccc2[nH]1 | 246 µL/min/1e6 cells |  | 3.1 |  | 
O=C(NCc1ccc(F)cc1)C1c2ccccc2C(=O)N1Cc1cc2cccnc2[nH]1 (configuration not stated) | 131 µL/min/1e6 cells |  | 3.3 | 90 ×10⁻⁶ cm/s | 
O=C(NCc1ccc(F)cc1)C1c2ccccc2C(=O)N1Cc1cc2ncccc2[nH]1 (configuration not stated) | 70 µL/min/1e6 cells |  | 3 |  | 
Nc1ccc2[nH]c(CN3C(=O)c4cc(F)ccc4[C@]34CCN(Cc3ccc(F)cc3)C4=O)nc2n1 | 5 µL/min/1e6 cells | 1300 nM |  |  | hepatocyte CLint [8]: < 1 µL/min/1e6 cells
O=C1c2cc(F)ccc2[C@]2(CCN(Cc3ccc(F)cc3)C2=O)N1Cc1cc2cccnc2[nH]1 | 193 µL/min/1e6 cells |  | 3.4 | 29 ×10⁻⁶ cm/s | 
Nc1ccc2cc(CN3C(=O)c4cc(F)ccc4[C@]34CCN(Cc3ccc(F)cc3)C4=O)[nH]c2n1 | 12 µL/min/1e6 cells | 140 nM | 2.5 | 31 ×10⁻⁶ cm/s | Ratio IC50 (HCT-116): 31; IC50 (PRMT5/MEP50 complex [4]): 9 nM
Nc1ccc2oc(CN3C(=O)c4cc(F)ccc4[C@]34CCN(Cc3ccc(F)cc3)C4=O)cc2n1 | 59 µL/min/1e6 cells |  | 2.3 | 72 ×10⁻⁶ cm/s | solubility at 24 h (physchem [5]): 243 µM (≈ 115 µg/mL)

Continued, in another order:

hepatocyte CLint [1] | IC50 [2] | logD (physchem [3]) | Papp A→B at 10 µM (in vitro) | SMILES | other results
64 µL/min/1e6 cells |  | 2.6 |  | N=C(N)Nc1ncc(CN2C(=O)c3ccccc3C2C(=O)N(Cc2ccc(F)cc2)C2CC2)s1 (configuration not stated) | 
22 µL/min/1e6 cells | 380 nM | 2.3 |  | COc1ccc2c(c1)C(=O)N(Cc1cnc(NC(=N)N)s1)C2C(=O)NCc1ccc(F)cc1 (configuration not stated) | Ratio IC50 (HCT-116): 7.7; IC50 (PRMT5/MEP50 complex [4]): 12 nM; IC50 (PRMT5/MEP50 complex [12]): 51 nM
23 µL/min/1e6 cells |  | 1.7 |  | N=C(N)Nc1nnc(CN2C(=O)c3ccccc3C2C(=O)NCc2ccc(F)cc2)s1 (configuration not stated) | 
34 µL/min/1e6 cells |  |  |  | N=C(N)Nc1ncc(CN2C(=O)c3ccccc3C2C(=O)NCc2ccc(F)cc2)s1 (configuration not stated) | fraction unbound [13]: 0.19; Vdss [6]: 1.6 L/kg; bioavailability [14]: 2%; half-life [7]: 66 min
11 µL/min/1e6 cells |  | 1.9 |  | COc1cccc2c1C(=O)N(Cc1cnc(NC(=N)N)s1)C2C(=O)NCc1ccc(F)cc1 (configuration not stated) | 
84 µL/min/1e6 cells |  | 2 |  | CN(Cc1ccc(F)cc1)C(=O)C1c2ccccc2C(=O)N1Cc1cnc(NC(=N)N)s1 (configuration not stated) | 
13 µL/min/1e6 cells |  | 2.5 |  | N=C(N)Nc1ncc(CN2C(=O)c3cc(F)ccc3C2C(=O)NCc2ccc(F)cc2)s1 (configuration not stated) | 
13 µL/min/1e6 cells |  | 2.1 |  | N#Cc1ccc2c(c1)C(C(=O)NCc1ccc(F)cc1)N(Cc1cnc(NC(=N)N)s1)C2=O (configuration not stated) | 
17 µL/min/1e6 cells | > 30000 nM | 0.9 |  | N=C(N)Nc1cc(CN2C(=O)c3ccccc3C2C(=O)NCc2ccc(F)cc2)ccn1 (configuration not stated) | IC50 (PRMT5/MEP50 complex [4]): 2950 nM; IC50 (PRMT5/MEP50 complex [12]): 27000 nM
